Structures can show the parent of a compound that is named as a salt.
Columns and labels:
PSA = assay: Plasma levels of PSA in LNCaP-Bic tumor bearing nude mice, ELISA; type: in vivo; conditions: Mus musculus, po, 336 h; 10 mg/kg/day orally, once daily, 14 consecutive days; plasma PSA by ELISA; read-out: T/C(%) (10 mg/kg/day), plasma levels of PSA treated/control
Experimental: (§1) Human prostate cancer cells (LNCaP-Bic) were transplanted in nude mice (6 males/group) and the inhibitory effect of the invention on their growth was examined. In the study, the tumor cell suspension with matrigel was inoculated at 0.12 mL/body (2.4×10^6 cells/body) into the subcutaneous space of the right axillary region to prepare tumor bearing mice. When the tumor diameter became 5 mm or more, the animals were allocated to groups based on the tumor volume. The test compound was administered orally as a suspension in 5% gum arabic, once daily, for 14 consecutive days. The control group received 5% gum arabic. Tumor volumes were measured on the following day of the last administration. Tumors were removed and the wet weight of the tumor was measured using an electronic balance. The ratio of the tumor weight in the treated group to that in the control group (T/C %) was calculated as the index for the effect. T/C %=(Mean tumor weight in the treatment group/Mean tumor weight in the control group)×100.
The heparinized blood was collected from the postcava under diethylether anesthesia. The plasma levels of PSA were measured using ELISA. The ratio of the plasma levels of PSA in the treated group to that in the control group (T/C %) was calculated as the index for the effect. T/C %=(Mean plasma levels of PSA in the treatment group/Mean plasma levels of PSA in the control group)×100.

[1] = system: human prostate (adenocarcinoma) cell line (VcaP); assay: Growth inhibition of VcaP cells, WST-8 assay; type: cell-based; conditions: 120 h, 5 days with test compound
In short: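 Cells in RPMI 1640 with 10% FBS were preincubated 24 h at 37° C., 5% CO2, then exposed to compound for 5 days. Growth read by WST-8 at 450 nm minus 630 nm, cell-free background subtracted. IC50 derived relative to untreated control.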

[2] = system: human breast cancer cell line (MDA-MB-468); assay: Growth inhibition of MDA-MB-468 cells, sulforhodamine B method; type: cell-based; conditions: 120 h, 5 days with test compound
In short: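 MDA-MB-468 cells in DMEM/10% FBS were incubated 24 h at 37° C., then exposed to compound for 5 days. After TCA fixation and sulforhodamine B staining, OD 492 nm minus 690 nm was read with cell-free background subtracted. IC50 was set against untreated control.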

[3] = system: Human prostate cancer cells (LNCaP-Bic); assay: Antitumor effect on LNCaP-Bic tumors transplanted in nude mice, tumor weight; type: in vivo; conditions: Mus musculus, po, 336 h, 10 mg/kg/day orally, once daily, 14 consecutive days, read-out: T/C(%) (10 mg/kg/day), tumor weight treated/control
Experimental: as §1

[4] = system: human prostate (adenocarcinoma) cell line (PC-3); assay: Growth inhibition of PC-3 cells, WST-8 assay; type: cell-based; conditions: 120 h, 5 days with test compound
In short: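 Cells seeded in RPMI 1640 with 10% FBS, grown 24 h at 37 °C, 5% CO2, then exposed to compound for 5 days. WST-8 read-out, OD 450 nm minus 630 nm reference, cell-free blank subtracted. IC50 (nM) from growth relative to compound-free control.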

[5] = system: human prostate (carcinoma) cell line (LNCaP.FGC); assay: Growth inhibition of LNCaP.FGC cells, WST-8 assay; type: cell-based; conditions: 120 h, 5 days with test compound
In short: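 Bicalutamide-resistant LNCaP-Bic cells (and parental LNCaP.FGC) in RPMI 1640 + 10% FBS were preincubated 24 h at 37 °C, 5% CO2, then exposed to compound for 5 days. Growth read by WST-8, OD 450 nm minus 630 nm, cell-free blank subtracted; IC50 (nM) taken relative to untreated control.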

[6] = system: bicalutamide resistant human prostate cancer cell line established from LNCaP.FGC (LNCaP-Bic); assay: Growth inhibition of LNCaP-Bic cells, WST-8 assay; type: cell-based; conditions: 120 h, 5 days with test compound
In short: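 Cells in RPMI 1640 with 10% FBS preincubated 24 h at 37 °C, 5% CO2, then exposed to compound for 5 days. WST-8 read-out, OD 450 minus 630 nm after cell-free blank subtraction; IC50 (nM) derived against untreated control growth.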

[7] = system: human hepatic cancer cell line (HuH-7); assay: Growth inhibition of HuH-7 cells, sulforhodamine B method; type: cell-based; conditions: Homo sapiens, 120 h, 5 days with test compound
Experimental: Growth inhibition of a human breast cancer cell line (MDA-MB-468) was determined by the sulforhodamine B method based on the method of Skehan P. et al. (J Natl Cancer Inst. 1990 Jul. 4; 82(13): 1107-12). In the study, MDA-MB-468 cells were seeded on DMEM medium containing 10% fetal bovine serum in a 96-well microplate. After 24-h incubation at 37° C. in the presence of 5% carbon dioxide, the test compound was added and the cells were incubated for another 5 days. After incubation, a trichloroacetic acid solution was added to yield the final concentration of 10% and the cells were left to stand at 4° C. for 1 hour to fix. Then, the cells were washed with water to remove the medium and trichloroacetic acid and dried in the air. The dried cells were stored at 4° C. until they were stained with sulforhodamine B. To each well, 1% acetic acid solution containing 0.4% sulforhodamine B was added and left to stand for 20 to 30 minutes at room temperature. After discarding the supernatant, each well was washed with 1% acetic acid solution, and 10 mM Tris([…]) solution was added while stirring to elute the dye taken into the cells. Then, the optical density was determined at the measurement wavelength of 492 nm and the reference wavelength of 690 nm, and the difference was calculated. The cell growth activity in each well was defined as the value determined by subtracting the OD in the control well not containing cells (the difference in absorbance between 492 nm and 690 nm) from that in the test well.
The 50% inhibitory concentration (IC50 (nM)) of the test compound was determined by comparing the cell growth activity in the well containing the test compound with that of the control not containing the test compound.
The growth inhibition on a human hepatic cancer cell line (HuH-7) was also determined by the above method.

[8] = system: human prostate (carcinoma) cell line (DU 145); assay: Growth inhibition of DU 145 cells, WST-8 assay; type: cell-based; conditions: 120 h, 5 days with test compound
In short: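 DU 145 cells in RPMI 1640 with 10% FBS were pre-incubated 24 h at 37° C, 5% CO2, then exposed to compound for 5 days. Growth was read by WST-8 reduction (OD 450 minus 630 nm, cell-free blank subtracted). IC50 was taken relative to untreated control.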

SMILES | response vs control in vivo at 10 mg/kg (PSA) | IC50 [1] | IC50 [2] | response vs control in vivo at 10 mg/kg [3] | IC50 [4] | IC50 [5] | IC50 [6] | IC50 [7] | IC50 [8] | melting point
Cc1ccc(COc2ccc(Oc3c(C)cc(/C=C/C(=O)N4CCN(Cc5ccc(CCOc6ccc(Cl)cc6)cc5)CC4)cc3Cl)nc2)cc1 [Example 408, (E)-3-[3-chloro-5-methyl-4-({5-[(4-methylbenzyl)oxy]pyridin-2-yl}oxy)phenyl]-1-(4-{4-[2-(4-chlorophenoxy)ethyl]benzyl}piperazin-1-yl)prop-2-en-1-one hydrochloride] | < 50% | < 10 nM | < 10 nM | < 50% | < 10 nM | < 10 nM | < 10 nM | < 10 nM | < 10 nM | 
Cc1ccc(COc2ccc(Oc3c(C)cc(/C=C/C(=O)N4CCN(Cc5ccc(CCOc6ccc(F)cc6)cc5)CC4)cc3Cl)nc2)cc1.Cl [Example 430, (E)-3-[3-Chloro-5-methyl-4-({5-[(4-methylbenzyl)oxy]pyridin-2-yl}oxy)phenyl]-1-(4-{4-[2-(4-fluorophenoxy)ethyl]benzyl}piperazin-1-yl)prop-2-en-1-one hydrochloride] | < 50% | < 10 nM | < 10 nM | < 50% | < 10 nM | < 10 nM | < 10 nM | < 10 nM | < 10 nM | 227.1 to 227.2 °C
Cc1ccc(COc2ccc(Oc3c(C)cc(/C=C/C(=O)N4CCN(Cc5ccc(CCOc6ccc(C)cc6)cc5)CC4)cc3Cl)nc2)cc1.Cl [Example 432, (E)-3-[3-Chloro-5-methyl-4-({5-[(4-methylbenzyl)oxy]pyridin-2-yl}oxy)phenyl]-1-(4-{4-[2-(4-methylphenoxy)ethyl]benzyl}piperazin-1-yl)prop-2-en-1-one hydrochloride] | < 50% | < 10 nM | < 10 nM | < 50% | < 10 nM | < 10 nM | < 10 nM | < 10 nM | < 10 nM | 232.1 to 232.7 °C
Cc1cc(/C=C/C(=O)N2CCN(Cc3ccc(CCOc4ccc(F)cc4)cc3)CC2)cc(Cl)c1Oc1ccc(OCc2ccc(F)cc2)cn1.Cl [Example 435, (E)-3-[3-Chloro-4-({5-[(4-fluorobenzyl)oxy]pyridin-2-yl}oxy)-5-methylphenyl]-1-(4-{4-[2-(4-fluorophenoxy)ethyl]benzyl}piperazin-1-yl)prop-2-en-1-one hydrochloride] | < 50% | < 10 nM | < 10 nM | < 50% | < 10 nM | < 10 nM | < 10 nM | < 10 nM | < 10 nM | 214.3 to 216.2 °C
Cc1cc(/C=C/C(=O)N2CCN(Cc3ccc(CCOc4ccc(C(C)C)cc4)cc3)CC2)cc(Cl)c1Oc1ccc(OCc2ccc(F)cc2)cn1 [Example 438, (E)-3-[3-Chloro-4-({5-[(4-fluorobenzyl)oxy]pyridin-2-yl}oxy)-5-methylphenyl]-1-[4-(4-{2-[4-(propan-2-yl)phenoxy]ethyl}benzyl)piperazin-1-yl]prop-2-en-1-one hydrochloride] | < 50% | < 10 nM | < 10 nM | < 50% | < 10 nM | < 10 nM | < 10 nM | < 10 nM | < 10 nM | 
Cc1ccc(OCCc2ccc(CN3CCN(C(=O)/C=C/c4cc(C)c(Oc5ccc(OCc6ccc(Cl)cc6)cn5)c(Cl)c4)CC3)cc2)cc1.Cl [Example 777, (E)-3-[3-chloro-4-({5-[(4-chlorobenzyl)oxy]pyridin-2-yl}oxy)-5-methylphenyl]-1-(4-{4-[2-(4-methylphenoxy)ethyl]benzyl}piperazin-1-yl)prop-2-en-1-one hydrochloride] | < 50% | < 10 nM | < 10 nM | < 50% | < 10 nM | < 10 nM | < 10 nM | < 10 nM | < 10 nM | 220.1 to 220.3 °C

From patent US8722663B2, “Di-substituted pyridine derivatives as anticancers” (Otsuka Pharmaceutical Co., Ltd., priority 2010, dated 2014)
